Data set [1] concerns patients with metastatic castration-resistant prostate cancer. Kind of data set: Clinical imaging and therapy under compassionate care. Format: in vivo, humans. Here is the method: After giving written informed consent, 3 patients with metastatic castration-resistant prostate cancer received PSMA-radioligand therapy (RLT) and the related companion diagnostic under compassionate-care regulations. Prospective clinical trial registration is not required for compassionate care that is performed under an individual medical indication.
The timeline of imaging time points is illustrated in Figure 2.

The subject of the next data set is mice. Nature of the data set: Toxicologic investigation (OECD guideline).

SMILES strings stand for the structures. *1 amine or outer side, *2 acyl side, *3 side chain or, on linkers, in order; H or OH if unused. Where a SMILES comes first, the peptide text is derived from it. [ ]: non-standard residue; d: D form. The star is where a group is joined. X2 = O=C(O)CCC(NC(=O)NC(CCCCN*)C(=O)O)C(=O)O; 2Nal = N[CH](Cc1ccc2ccccc2c1)C(=O)O; X1 = O=C(C1CCC(N[*:1])CC1)[*:2]; Mercaptoacetyl = O=C(CS)*

Experimental for mice: The evaluation was conducted using well-known standard methods ([16],[17]).

Regarding `O=C(O)CCC(NC(=O)NC(CCCCNC(=O)C(Cc1ccc2ccccc2c1)NC(=O)C1CCC(NC(=O)C(CO)NC(=O)C(CO)NC(=O)C(CO)NC(=O)CS)CC1)C(=O)O)C(=O)O` (centres unmarked) [PSMA-GCK01] (Mercaptoacetyl-SSS[X1][2Nal]-X2; configuration not given here), in data set [1] (initially, intraindividual comparison), the “liver-to-kidney uptake ratio compared with PSMA-617” value is listed as “higher”. In the data set on mice (mice), the mortality entry is listed as “No test article–related mortality”. Also, in the data set on mice (mice, third-party preclinical research organization), the “dose without toxicologic effect” value is “up to 2 mg/kg”. In addition, the “organ weights or macroscopic observations” value with mice (terminal or recovery euthanasia) is given as “No differences”.

Regarding `O=C([O-])CN1CCN(CC(=O)[O-])CCN(CC(=O)NCC2CCC(C(=O)N[C@@H](Cc3ccc4ccccc4c3)C(=O)NCCCC[C@H](NC(=O)N[C@@H](CCC(=O)O)C(=O)O)C(=O)O)CC2)CCN(CC(=O)[O-])CC1.[177Lu+3]` (some centres unmarked) [^177Lu-PSMA-617, reference compound], in data set [1] (dual-photopeak imaging), the clearance route entry is “combined renal and hepatointestinal clearance route”.

(Values after PMC10315696, “PSMA-GCK01: A Generator-Based ^99mTc/^188Re Theranostic Ligand for the Prostate-Specific Membrane Antigen” (Journal of Nuclear Medicine, 2023).)
